pIC50: −log10 of the molar value.
Tests used:
[1] = Toxicity in MRL/Ipr Systemic lupus erythematosus mouse model assessed as relative spleen weight at 20 mg/kg, po administered for 8 weeks and measured 24 hrs post final dose relative to control; format: organism-based; conditions: in vivo, 1368 h
[2] = Clearance in mouse blood at 5 mg/kg, iv; format: ADME, organism-based
[3] = In vivo antagonist activity at TRL7 in C57BL/6 mouse assessed as inhibition of gardiquimod stimulated IL-6 production at […],po for 30 minutes and followed by gardiquimod addition measured after 90 mins by ELISA analysis relative to control; format: functional; set-up: scale not given: the % may be the effect or the level left; conditions: time 120 min, 2 h
[4] = In vivo antagonist activity at TRL9 in C57BL/6 mouse assessed as inhibition of ODN1585 stimulated IL-6 production at 10 mg/kg,po for 30 minutes and followed by ODN1585 addition measured after 90 mins by ELISA analysis relative to control; format: functional; set-up: scale not given: the % may be the effect or the level left; conditions: time 120 min, 2 h
[5] = Toxicity in MRL/Ipr Systemic lupus erythematosus mouse model assessed as drug tolerability at 0.1 to 20 mg/kg, po administered for 8 weeks and measured 24 hrs post final dose; format: organism-based; conditions: in vivo, 1368 h, dose 0.1-20 mg/kg
Mus musculus [6] = experiment: Anti-inflammatory activity against MRL/Ipr Systemic lupus erythematosus mouse model assessed as inhibition of urinary NGAL at 5 mg/kg, po administered for 8 weeks and measured 24 hrs post final dose relative to control; format: functional; set-up: scale not given: the % may be the effect or the level left; conditions: time 1368 hrs
Mus musculus [7] = experiment: Anti-inflammatory activity against MRL/Ipr Systemic lupus erythematosus mouse model assessed as inhibition of anti-Sm/RNP Ab titer at 0.1 mg/kg, po administered for 8 weeks and measured 24 hrs post final dose relative to control; format: functional; set-up: scale not given: the % may be the effect or the level left; conditions: time 1368 hrs
[8] = In vivo antagonist activity at TRL9 in C57BL/6 mouse assessed as inhibition of ODN1585 stimulated IL-6 production at 1 mg/kg,po for 30 minutes and followed by ODN1585 addition measured after 90 mins by ELISA analysis relative to control; format: functional; set-up: scale not given: the % may be the effect or the level left; conditions: time 120 min, 2 h
Mus musculus [9] = experiment: Anti-inflammatory activity against MRL/Ipr Systemic lupus erythematosus mouse model assessed as inhibition of anti-dsDNA Ab titer at 20 mg/kg, po administered for 8 weeks and measured 24 hrs post final dose relative to control; format: functional; set-up: scale not given: the % may be the effect or the level left; conditions: time 1368 hrs
Mus musculus [10] = experiment: Anti-inflammatory activity against MRL/Ipr Systemic lupus erythematosus mouse model assessed as inhibition of anti-Sm/RNP Ab titer at 20 mg/kg, po administered for 8 weeks and measured 24 hrs post final dose relative to control; format: functional; set-up: scale not given: the % may be the effect or the level left; conditions: time 1368 hrs
[11] = AUClast in mouse blood at 5 mg/kg, iv; format: ADME, organism-based; set-up: time 0 - last, dose 5 mg/kg, route iv
[12] = Toxicity in MRL/Ipr Systemic lupus erythematosus mouse model assessed as relative spleen weight at 5 mg/kg, po administered for 8 weeks and measured 24 hrs post final dose relative to control; format: organism-based; conditions: in vivo, 1368 h
[13] = Toxicity in MRL/Ipr Systemic lupus erythematosus mouse model assessed as change in body weight at 0.1 to 20 mg/kg, po administered for 8 weeks and measured 24 hrs post final dose; format: organism-based; conditions: in vivo, 1368 h, dose 0.1-20 mg/kg
Mus musculus [14] = experiment: Anti-inflammatory activity against MRL/Ipr Systemic lupus erythematosus mouse model assessed as inhibition of proteinuria at 20 mg/kg, po administered for 8 weeks and measured 24 hrs post final dose relative to control; format: functional; set-up: scale not given: the % may be the effect or the level left; conditions: time 1368 hrs
[15] = In vivo antagonist activity at TRL7 in C57BL/6 mouse assessed as inhibition of gardiquimod stimulated IL-6 production at 0.05 mg/kg,po for 30 minutes and followed by gardiquimod addition measured after 90 mins by ELISA analysis relative to control; format: functional; set-up: scale not given: the % may be the effect or the level left; conditions: time 120 min, 2 h
Mus musculus [16] = experiment: Anti-inflammatory activity against MRL/Ipr Systemic lupus erythematosus mouse model assessed as inhibition of urinary NGAL at 20 mg/kg, po administered for 8 weeks and measured 24 hrs post final dose relative to control; format: functional; set-up: scale not given: the % may be the effect or the level left; conditions: time 1368 hrs
[17] = In vivo antagonist activity at TRL7 in C57BL/6 mouse assessed as inhibition of gardiquimod stimulated IL-6 production at 0.5 mg/kg,po for 30 minutes and followed by gardiquimod addition measured after 90 mins by ELISA analysis relative to control; format: functional; set-up: scale not given: the % may be the effect or the level left; conditions: time 120 min, 2 h
[18] = Plasma protein binding in mouse assessed as free fraction; format: ADME, cell-free
[19] = Volume of distribution at steady state in mouse blood at 5 mg/kg, iv; format: ADME, organism-based; conditions: read-out: Vdss
[20] = Tmax in mouse blood at 15 mg/kg, po; format: ADME, organism-based
Mus musculus [21] = experiment: Anti-inflammatory activity against MRL/Ipr Systemic lupus erythematosus mouse model assessed as inhibition of proteinuria at 1 mg/kg, po administered for 8 weeks and measured 24 hrs post final dose relative to control; format: functional; set-up: scale not given: the % may be the effect or the level left; conditions: time 1368 hrs
Toll-like receptor 8 = target: T1, Toll-like receptor 8 (Homo sapiens, UniProt Q9NR97)
T1 sequence (Q9NR97 whole entry): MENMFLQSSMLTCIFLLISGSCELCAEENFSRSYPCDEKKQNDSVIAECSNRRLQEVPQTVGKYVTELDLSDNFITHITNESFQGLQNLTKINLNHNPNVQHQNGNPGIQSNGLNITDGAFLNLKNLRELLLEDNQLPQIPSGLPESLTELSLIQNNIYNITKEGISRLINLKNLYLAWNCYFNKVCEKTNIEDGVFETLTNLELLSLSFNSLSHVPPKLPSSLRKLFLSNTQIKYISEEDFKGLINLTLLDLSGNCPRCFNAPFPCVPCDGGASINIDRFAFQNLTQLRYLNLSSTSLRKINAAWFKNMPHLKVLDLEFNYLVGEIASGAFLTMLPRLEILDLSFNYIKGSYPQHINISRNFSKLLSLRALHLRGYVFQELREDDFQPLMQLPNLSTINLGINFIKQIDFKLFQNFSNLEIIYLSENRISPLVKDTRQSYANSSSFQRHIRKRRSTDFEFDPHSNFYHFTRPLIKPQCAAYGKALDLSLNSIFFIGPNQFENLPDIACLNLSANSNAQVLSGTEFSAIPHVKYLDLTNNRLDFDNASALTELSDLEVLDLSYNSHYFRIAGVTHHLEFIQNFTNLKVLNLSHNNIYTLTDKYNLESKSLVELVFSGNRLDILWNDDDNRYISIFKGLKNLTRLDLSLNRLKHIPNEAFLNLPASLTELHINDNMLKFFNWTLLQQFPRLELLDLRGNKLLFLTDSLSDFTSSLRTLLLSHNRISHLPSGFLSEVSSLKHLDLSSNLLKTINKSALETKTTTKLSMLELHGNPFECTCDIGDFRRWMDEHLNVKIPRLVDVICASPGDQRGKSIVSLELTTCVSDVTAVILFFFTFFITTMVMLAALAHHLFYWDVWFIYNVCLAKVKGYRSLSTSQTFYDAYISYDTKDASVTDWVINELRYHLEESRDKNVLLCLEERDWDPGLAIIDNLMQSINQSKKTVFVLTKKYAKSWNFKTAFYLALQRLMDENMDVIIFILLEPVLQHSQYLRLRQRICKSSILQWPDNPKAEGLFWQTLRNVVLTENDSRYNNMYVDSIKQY

Mus musculus [22] = experiment: Anti-inflammatory activity against MRL/Ipr Systemic lupus erythematosus mouse model assessed as inhibition of urinary NGAL at 1 mg/kg, po administered for 8 weeks and measured 24 hrs post final dose relative to control; format: functional; set-up: scale not given: the % may be the effect or the level left; conditions: time 1368 hrs
[23] = Cmax in mouse blood at 15 mg/kg, po; format: ADME, organism-based; set-up: dose 15 mg/kg, route po
[24] = Drug concentration in mouse blood at 15 mg/kg, po measured at 24 hrs; format: ADME, organism-based; conditions: read-out: Ct

Cc1cc(-c2[nH]c3ccc(C4CCNCC4)cc3c2C(C)C)cc(C)n1
Activity [1]: 51% | clearance [2]: 146 mL/min/kg | Activity [3]: 16% | Activity [4]: 33% | Activity [5]: Non-Toxic | Activity (Mus musculus [6]): 72% | Activity (Mus musculus [7]): 27% | Activity [8]: 16% | Activity (Mus musculus [9]): 53% | Activity (Mus musculus [10]): 82% | AUC(0-t) [11]: 1.58 µM·h | Activity [12]: 49% | Activity [13]: Non-Toxic | Activity (Mus musculus [14]): 93% | Activity [15]: 66% | Activity (Mus musculus [16]): 81% | Activity [17]: 98% | fraction unbound [18]: 0.05 | Vd [19]: 113 L/kg | Tmax [20]: 5 h | Activity (Mus musculus [21]): 92% | pIC50 (Toll-like receptor 8): 8.38 | Activity (Mus musculus [22]): 69% | Cmax [23]: 255 nM | concentration at 24 h [24]: 22 nM
